Legend:
Type in all cases: in vivo, human
[1] = system: patients being treated for pulmonary arterial hypertension; assay: Safety: selexipag discontinuation and adverse events leading to discontinuation
Text: (§1) In this example, the effectiveness of transitioning patients from a non-selexipag PPA to selexipag was investigated. Patients were followed for up to 18 months and data were collected at the time of initiation, enrollment, and approximately quarterly post-enrollment. Eligible patients were aged ≥18 years and either newly initiated on selexipag at the time of enrollment or were already receiving selexipag and have a documented titration regimen.
AEs known to be associated with the selexipag mechanism of action were only reported if they were serious, led to selexipag discontinuation, or reflected an unusual pattern of severity.
Safety data were collected only for the period during which patients were enrolled. The median total duration of selexipag treatment on study was 13.7 months (IQR: 9.1-17.8 months) for all patients: 13.8 months (IQR: 9.2-17.8 months) for patients in the inhaled/oral group and 13.4 months (IQR: 6.8-15.9 months) for patients in the parenteral group.

[2] = system: patients being treated for pulmonary arterial hypertension transitioned from a non-selexipag PPA; assay: Change in WHO/NYHA functional class (FC) from baseline after transition to selexipag; conditions: for patients with worsened FC / patients with improved FC: all transitioned patients
Text: as §1
(§2) “Transitioned patients” were defined as patients who were (i) taking a non-selexipag PPA for ≥30 days at the time of selexipag initiation who stopped the initial agent ≤7 days before selexipag initiation; or (ii) continued taking the initial, non-selexipag PPA when they initiated selexipag and gradually transitioned off that agent.
(§3) Assessments performed closest to selexipag initiation were considered to be “baseline.” Data at 6 and 12 months post-baseline were as follows (i) the window for the 6-month measurements was >0 months and <9 months; (ii) the window for the 12-month measurements was ≥9 months and <16 months; and (iii) the assessment closest to the 6- or 12-month time point, respectively, was used.

[3] = system: patients being treated for pulmonary arterial hypertension transitioned from a non-selexipag PPA; assay: Change from baseline in 6-minute walk distance (6MWD) after transition to selexipag
Text: as §1, §2, §3

[4] = system: patients being treated for pulmonary arterial hypertension transitioned from a non-selexipag PPA; assay: Change from baseline in assessed risk category after transition to selexipag
Text: as §3
Risk categories were assigned. Seven variables were used: World Health Organization or New York Heart Association functional class (FC), 6-minute walk distance (6MWD), N-terminal prohormone of brain natriuretic peptide (NT-proBNP), brain natriuretic peptide (BNP), and hemodynamic parameters, including right atrial pressure, cardiac index, and mixed venous oxygen saturation. If both NT-proBNP and BNP were available, the risk classification of each value was averaged together and the mean was used in the risk categorization. Thresholds from the 2015 European Society of Cardiology/European Respiratory Society Guidelines were applied to assign a risk score for each available variable: 1=low risk, 2=intermediate risk, and 3=high risk. The risk score from all available variables was then averaged. The resulting number was rounded to the nearest integer to produce the patient's individual risk category: 1=low risk, 2=intermediate risk, and 3=high risk

[5] = transitioned from parenteral non-selexipag PPA, 6 months
[6] = transitioned from oral/inhaled non-selexipag PPA, 6 months
[7] = transitioned from oral/inhaled non-selexipag PPA, 12 months
[8] = transitioned from parenteral non-selexipag PPA, 12 months

Question: With `CC(C)N(CCCCOCC(=O)NS(C)(=O)=O)c1cnc(-c2ccccc2)c(-c2ccccc2)n1` [selexipag, 2-{4-[(5,6-diphenylpyrazin-2-yl)(propan-2-yl)amino]butoxy}-N-(methanesulfonyl)acetamide] as the compound, how does the “AE leading to selexipag discontinuation: Acute respiratory failure, %” value ([1]; All Patients (N = 56)) read?
Answer: The value was “(1.8) %”.

Question: And the “AE leading to selexipag discontinuation: Arthralgia, %” value ([1]; All Patients (N = 56))?
Answer: The value was “(1.8) %”.

Question: And the “AE leading to selexipag discontinuation: Cardiac arrest, %” value ([1]; All Patients (N = 56))?
Answer: Its value is “(1.8) %”.

Question: And the “AE leading to selexipag discontinuation: Cardiac disorders, %” value (from here on “AE leading … Cardiac disorders, %”) ([1]; All Patients (N = 56))?
Answer: The value was “(7.1) %”.

Question: What about the “AE leading to selexipag discontinuation: Cardiac failure congestive, %” value ([1]; All Patients (N = 56)) of the same compound?
Answer: Its value is “(1.8) %”.

Question: What about the “AE leading to selexipag discontinuation: Fluid overload, %” value ([1]; All Patients (N = 56)) of the same compound?
Answer: Its value is “(1.8) %”.

Question: And the “AE leading to selexipag discontinuation: Headache, %” value ([1]; All Patients (N = 56))?
Answer: The value was “(1.8) %”.

Question: What about the “AE leading to selexipag discontinuation: Investigations, % (Right ventricular systolic pressure)” value ([1]; All Patients (N = 56)) of the same compound?
Answer: Its value is “(1.8) %”.

Question: What about the “AE leading to selexipag discontinuation: Investigations, n (Right ventricular systolic pressure)” value ([1]; All Patients (N = 56)) of the same compound?
Answer: Its value is 1 n.

Question: And the “AE leading to selexipag discontinuation: Musculoskeletal and connective tissue disorders, %” value ([1]; All Patients (N = 56))?
Answer: The value was “(1.8) %”.

Question: What about the “AE leading to selexipag discontinuation: Nervous system disorders, %” value ([1]; All Patients (N = 56)) of the same compound?
Answer: Its value is “(1.8) %”.

Question: And the “AE leading to selexipag discontinuation: Respiratory failure, %” value ([1]; All Patients (N = 56))?
Answer: The value was “(1.8) %”.

Question: And the “AE leading to selexipag discontinuation: Respiratory, thoracic and mediastinal disorders, %” value ([1]; All Patients (N = 56))?
Answer: Its value is “(8.9) %”.

Question: And the “AE leading to selexipag discontinuation: Right ventricular failure, %” value ([1]; All Patients (N = 56))?
Answer: Its value is “(1.8) %”.

Question: What about the “AE leading to selexipag discontinuation: Right ventricular systolic pressure increased, %” value ([1]; All Patients (N = 56)) of the same compound?
Answer: Its value is “(1.8) %”.

Question: What about the “AE leading to selexipag discontinuation: Worsening pulmonary hypertension, %” value ([1]; All Patients (N = 56)) of the same compound?
Answer: The value was “(5.4) %”.

Question: And the “AE leading to selexipag discontinuation: Acute respiratory failure, %” value ([1]; Inhaled/Oral (n = 36))?
Answer: Its value is 2.8%.

Question: What about the “AE leading to selexipag discontinuation: Arthralgia, %” value ([1]; Inhaled/Oral (n = 36)) of the same compound?
Answer: The value was 2.8%.

Question: What about the “AE leading to selexipag discontinuation: Cardiac arrest, %” value ([1]; Inhaled/Oral (n = 36)) of the same compound?
Answer: Its value is 2.8%.

Question: And the “AE leading … Cardiac disorders, %” value ([1]; Inhaled/Oral (n = 36))?
Answer: The value was 5.6%.

Question: And the “AE leading to selexipag discontinuation: Cardiac failure congestive, %” value ([1]; Inhaled/Oral (n = 36))?
Answer: Its value is 2.8%.

Question: And the “AE leading to selexipag discontinuation: Headache, %” value ([1]; Inhaled/Oral (n = 36))?
Answer: Its value is 2.8%.

Question: And the “AE leading to selexipag discontinuation: Investigations, n (Right ventricular systolic pressure)” value ([1]; Inhaled/Oral (n = 36))?
Answer: Its value is 0 n.

Question: And the “AE leading to selexipag discontinuation: Musculoskeletal and connective tissue disorders, %” value ([1]; Inhaled/Oral (n = 36))?
Answer: Its value is 2.8%.

Question: And the “AE leading to selexipag discontinuation: Nervous system disorders, %” value ([1]; Inhaled/Oral (n = 36))?
Answer: The value was 2.8%.

Question: And the “AE leading to selexipag discontinuation: Patients with at least one AE, %” value ([1]; Inhaled/Oral (n = 36))?
Answer: The value was 16.7%.

Question: What about the “AE leading to selexipag discontinuation: Respiratory failure, %” value ([1]; Inhaled/Oral (n = 36)) of the same compound?
Answer: The value was 2.8%.

Question: What about the “AE leading to selexipag discontinuation: Respiratory, thoracic and mediastinal disorders, %” value ([1]; Inhaled/Oral (n = 36)) of the same compound?
Answer: Its value is 5.6%.

Question: And the “AE leading … Cardiac disorders, %” value ([1]; Parenteral (n = 20))?
Answer: Its value is “(10.0) %”.

Question: And the “AE leading to selexipag discontinuation: Fluid overload, %” value ([1]; Parenteral (n = 20))?
Answer: Its value is “(5.0) %”.

Question: What about the “AE leading to selexipag discontinuation: Investigations, % (Right ventricular systolic pressure)” value ([1]; Parenteral (n = 20)) of the same compound?
Answer: Its value is “(5.0) %”.

Question: And the “AE leading to selexipag discontinuation: Investigations, n (Right ventricular systolic pressure)” value ([1]; Parenteral (n = 20))?
Answer: The value was 1 n.

Question: What about the “AE leading to selexipag discontinuation: Respiratory, thoracic and mediastinal disorders, %” value ([1]; Parenteral (n = 20)) of the same compound?
Answer: Its value is “(15.0) %”.

Question: What about the “AE leading to selexipag discontinuation: Right ventricular failure, %” value ([1]; Parenteral (n = 20)) of the same compound?
Answer: The value was “(5.0) %”.

Question: What about the “AE leading to selexipag discontinuation: Right ventricular systolic pressure increased, %” value ([1]; Parenteral (n = 20)) of the same compound?
Answer: Its value is “(5.0) %”.

Question: What about the “AE leading to selexipag discontinuation: Worsening pulmonary hypertension, %” value ([1]; Parenteral (n = 20)) of the same compound?
Answer: The value was “(15.0) %”.

Question: And the “patients who discontinued selexipag” value ([1]; non-transitioned patients (65 of 194))?
Answer: Its value is 33.5%.

Question: And the “patients who discontinued selexipag” value ([1]; transitioned patients (16 of 56))?
Answer: Its value is 28.6%.

Question: And the “disease course in the majority of patients as indicated by FC, 6MWD, and risk status” value ([2]; 12 months after transitioning, regardless of type of prior non-selexipag PPA)?
Answer: Its value is “unchanged or improved disease”.

Question: And the “patients with worsened FC” value ([2]; 6 months vs baseline)?
Answer: Its value is “none”.

Question: What about the “patients with improved FC” value ([2]; 6 months vs baseline, data for 46% of patients) of the same compound?
Answer: The value was 27%.

Question: What about the “patients with worsened FC” value ([2]; 12 months vs baseline) of the same compound?
Answer: The value was 10%.

Question: What about the “patients with improved FC” value ([2]; 12 months vs baseline, data for 70% of patients) of the same compound?
Answer: The value was 21%.

Question: What about the FC versus baseline ([2]; transitioned patients, at 6 and 12 months) of the same compound?
Answer: Its FC versus baseline is “maintained in the majority of transitioned patients”.

Question: What about the 6MWD versus baseline ([3]; all patients, 12 months) of the same compound?
Answer: Its 6MWD versus baseline is “modest increase in 6MWD”.

Question: And the 6MWD versus baseline ([3]; transitioned from oral/inhaled PPA, 6 months)?
Answer: The 6MWD versus baseline was “increased 6MWD”.

Question: What about the “median 6MWD versus baseline” value [3, 5] of the same compound?
Answer: Its value is “decreased median 6MWD from baseline”.

Question: And the “patients with improved risk status” value [4, 6]?
Answer: The value was 21%.

Question: What about the “patients with maintained risk status” value [4, 6] of the same compound?
Answer: Its value is 63%.

Question: And the “patients with worsened risk status” value [4, 6]?
Answer: The value was 17%.

Question: And the “patients with improved FC (in the risk status paragraph)” value [4, 7]?
Answer: The value was 24%.

Question: What about the “patients with maintained risk status” value [4, 7] of the same compound?
Answer: The value was 61%.

Question: And the “patients with worsened FC (in the risk status paragraph)” value [4, 7]?
Answer: Its value is 15%.

Question: And the “patients with improved risk status” value [4, 5]?
Answer: The value was 27%.

Question: And the “patients with maintained or improved risk status” value [4, 5]?
Answer: Its value is 67%.

Question: And the “patients with maintained risk status” value [4, 5]?
Answer: Its value is 40%.

Question: And the “patients with worsened risk status” value [4, 5]?
Answer: The value was 33%.

Question: And the “patients with improved risk status” value [4, 8]?
Answer: The value was 29%.

Question: What about the “patients with maintained or improved risk status” value [4, 8] of the same compound?
Answer: The value was 86%.

Question: And the “patients with maintained risk status” value [4, 8]?
Answer: Its value is 57%.

Question: What about the “patients with worsened risk status” value [4, 8] of the same compound?
Answer: Its value is 14%.
